Among the data in BindingDB's records for doi:10.1016/s0960-894x(01)00005-1 (Graduate School of Bioscience and Biotechnology, 2001) are IC50 and Kd values, retold here.

Test [1] can be described thus: Inhibitory activity against peptide binding to the RRE RNA was determined.
A short description of test [2]: Dissociation constant for TAR RNA.

Structures are written as SMILES.

In the case of `N=C(N)NCCCC(N)C(=O)NCC1OC(OC2C(N)CC(N)C(O)C2O)C(N)C(O)C1O` [2-Amino-5-guanidino-pentanoic acid [(4R,5S,6S)-5-amino-6-((2R,3R,4R)-4,6-diamino-2,3-dihydroxy-cyclohexyloxy)-3,4-dihydroxy-tetrahydro-pyran-2-ylmethyl]-amide], the IC50 in test [1] is 460 nM.
For the compound `N=C(N)NCCCC(NC(=O)c1ccc2ccc3cccc4ccc1c2c34)C(=O)NCC1OC(OC2C(N)CC(N)C(O)C2O)C(N)C(O)C1O` (stereo not drawn) [Neamine derivative], the Kd in test [2] came out at 30 nM.
As to `NC1CC(N)C(OC2OC(CNC(=O)c3ccc4ccc5cccc6ccc3c4c56)C(O)C(O)C2N)C(O)C1O` [Pyrene-1-carboxylic acid [(4R,5S,6S)-5-amino-6-((2R,3R,4R)-4,6-diamino-2,3-dihydroxy-cyclohexyloxy)-3,4-dihydroxy-tetrahydro-pyran-2-ylmethyl]-amide], the Kd in test [2] turned out to be 290 nM.

What is called IC50 is the midpoint of a concentration-inhibition curve. High values mean weaker potency in that assay, low ones greater potency in that assay. Broadly, the Kd is the equilibrium constant for the complex coming apart.
